Experimental data taken from article PMC7203245, “Lacosamide intake during pregnancy increases the incidence of foetal malformations and symptoms associated with schizophrenia in the offspring of mice” (Scientific Reports, 2020).

Test: LCM and related compounds (RC) in embryos and mothers' serum by high-resolution MS/MSe
Format: in vivo, mice
Conditions: for presence in the serum of mothers: dams given 10-120 mg/kg LCM
Experimental: Samples were extracted as described previously[25] with slight modifications. Briefly, embryos were rinsed with cold saline and ultrapure water, and their wet-weight was determined. […] The mixture was vortexed vigorously for 3 min and centrifuged at 13,000 g for 5 min. The supernatant was transferred to a new Eppendorf tube and evaporated to dryness in a stream of nitrogen gas. The residue was reconstituted with 50 µL of LC-MS Ultrapure water, vortexed for 20 s and centrifuged at 13,000 g for 5 min. The supernatant was transferred to a conic micro insert to be injected onto the UHPLC system.
MS spectra data were collected between m/z 50 and 1000, and MS/MS spectra were registered between 50-300 Da. […] The MS^e procedure was used to identify metabolites in positive ionization mode. UPLC–QTOF-MS^e detection collects data using two scan functions, providing fragment ion information without precursor ion selection. A characteristic m/z in the low energy function allows identification through the fragment ions obtained with the high collision energy function. Two functions were acquired at different collision energies: a low energy function obtained at 2 eV; and a high-energy function obtained using a collision energy ramp ranging from 15 to 30 eV and spectra data collected between m/z 50 and 800. The data station operating the software was a MassLynx version 4.1, while metabolites were identified by means of Metabolynx XS (Waters, Micromass, Manchester, UK).
In this work the following routes were selected for these searches: phase I metabolites Reduction (+H2), Hydroxylation (O), Hydration (+H2O), 2xHydroxylation (+O2), Deacetylation (-C2H2O) and Demethylation (-CH2); and phase II metabolites Acetylation (+C2H2O) and Glucuronide (+C6H8O6).

SMILES: CC(=O)N[C@H](CO)C(=O)NCc1ccccc1 [RC 2, O-Demethyl LCM]
- Embryos in which the LCM compound is present (Maternal Dose 10 mg/kg): Embryo1 and 2
- Embryos in which the LCM compound is present (Maternal Dose 80 mg/kg): Embryo 5 and 6
- presence in the serum of mothers: detected in the serum of all mothers
- number of embryos in which detected (embryos from dams treated with 10 mg/kg and 80 mg/kg LCM): 2

SMILES: COC[C@@H](N)C(=O)NCc1ccccc1 [deacetylacosamide]
- presence in samples from mothers (mothers who received 10 mg/kg LCM): contained

SMILES: NCc1ccccc1 [RC 1]
- Embryos in which the LCM compound is present (Maternal Dose 10 mg/kg): Embryo1 and 2
- presence in the serum of mothers: detected in the serum of all mothers
- number of embryos in which detected (embryo from a dam treated with 10 mg/kg LCM): 1

SMILES: CC(=O)N[C@H](CO)C(=O)NCc1ccccc1 [desmethylacosamide]
- presence in samples from dams (dams that received 120 mg/kg LCM): some samples from the corresponding dams contained
